Measurements taken from patent publication US12612387B2, “RAS inhibitors and methods of using the same” (Jazz Pharmaceuticals Ireland Limited, priority 2020, dated 2026).

Legend:
K-RAS G12C = biological target: T1, K-RAS G12C (Homo sapiens, UniProt P01116, G12C); assay: Compound depletion assay, K-RAS G12C; type: binding; settings: G12C protein 20 μM, compound 8 μM, 25° C.
T1 construct: His tag; purchased Stratech
Method: (§1) Compound Depletion Assay Method
(§2) Lyophilized human K-RAS (12 Cys) protein (His tag) and human K-RAS (12 Asp) protein (His tag) were purchased from Stratech and reconstituted at 30 μM in water. The protein concentration of K-RAS G12C and K-RAS G12D was adjusted to 20 μM in K-RAS Assay Buffer (20 mM HEPES pH 7.5, 150 mM NaCl, 1 mM MgCl2). A 49 μl aliquot of protein solution was transferred to 1.5 ml eppendorfs and incubated at room temperature for 10 minutes. A 1 μl aliquot of compound solution in DMSO was added to the protein solutions in the 1.5 ml eppendorfs to initiate the reaction, with a final assay compound concentration of 8 μM. Reactions were agitated at 25° C., 700 rpm. At each time point (0, 30, 180, 360, 1440 minutes), 10 μl of the reaction mixture was removed, added to 30 μl quench solution (0.3% formic acid, 75 nM propranolol in acetonitrile) to stop the reaction and stored at 4° C. Once all reactions were quenched, the samples were centrifuged at 16000 g for 10 minutes to pellet the protein and salts. A 10 μl aliquot of supernatant containing compound was diluted in 50:50 acetonitrile:H2O in a 96 well plate. The plates were heat sealed and the samples analysed by LC-MS/MS to determine the concentration of compound remaining in the samples. To determine the reaction progress, the compound signal was normalized to the internal standard signal (propranolol). The decrease in free compound concentration is shown as a percentage over time, with the […] at time zero fixed at one hundred percent. Compound is assumed to be completely depleted when no longer detectable with a double blank sample as reference.

K-RAS G12D = biological target: T2, K-RAS G12D (Homo sapiens, UniProt P01116, G12D); assay: Compound depletion assay, K-RAS G12D; type: binding; settings: G12D protein 20 μM, compound 8 μM, 25° C.
T2 construct: His tag; purchased Stratech
T2 sequence (P01116 1-188 isoform P01116-2 G12D): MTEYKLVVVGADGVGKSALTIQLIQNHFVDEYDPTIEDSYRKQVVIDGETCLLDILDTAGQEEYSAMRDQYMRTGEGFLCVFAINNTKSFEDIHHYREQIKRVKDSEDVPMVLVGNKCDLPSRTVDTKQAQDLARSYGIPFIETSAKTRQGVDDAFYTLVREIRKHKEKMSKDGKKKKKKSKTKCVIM
Method: as §1, §2

T1 sequence (P01116 1-188 isoform P01116-2 G12C): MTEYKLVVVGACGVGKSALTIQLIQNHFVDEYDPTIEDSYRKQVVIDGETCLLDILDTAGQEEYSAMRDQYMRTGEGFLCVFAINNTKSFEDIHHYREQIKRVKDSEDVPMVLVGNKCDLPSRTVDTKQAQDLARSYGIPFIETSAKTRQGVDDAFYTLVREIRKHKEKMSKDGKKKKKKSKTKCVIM

Row | Structure (SMILES) | 3 hr Category (compound remaining at timepoint) (K-RAS G12C) | 6 hr Category (compound remaining at timepoint) (K-RAS G12C) | 24 hr Category (compound remaining at timepoint) (K-RAS G12C) | 30 min Category (compound remaining at timepoint) (K-RAS G12D) | 3 hr Category (compound remaining at timepoint) (K-RAS G12D) | 6 hr Category (compound remaining at timepoint) (K-RAS G12D) | 24 hr Category (compound remaining at timepoint) (K-RAS G12D) | 30 min Category (compound remaining at timepoint) (K-RAS G12C)
1 | C=CC(=O)N1CCN(c2cc(C(=O)Nc3cccc4ccccc34)nc(-c3cccnc3)n2)CC1 [Example 09, N-(1-naphthyl)-6-(4-prop-2-enoylpiperazin-1-yl)-2-(3-pyridyl)pyrimidine-4-carboxamide] | A (≥70% compound remaining at timepoint) | A (≥70% compound remaining at timepoint) | B (30%-70% compound remaining at timepoint) | A (≥70% compound remaining at timepoint) | A (≥70% compound remaining at timepoint) | A (≥70% compound remaining at timepoint) | A (≥70% compound remaining at timepoint) | –
2 | C=CC(=O)N1CCN(c2cc(C(=O)Nc3cc(O)cc4ccccc34)nc(NC[C@@H]3CCCN3Cc3ccccc3)n2)C[C@@H]1CC#N [Example 44, 2-[[(2S)-1-benzylpyrrolidin-2-yl]methylamino]-6-[(3S)-3-(cyanomethyl)-4-prop-2-enoyl-piperazin-1-yl]-N-(3-hydroxy-1-naphthyl)pyrimidine-4-carboxamide] | B (30%-70% compound remaining at timepoint) | B (30%-70% compound remaining at timepoint) | – | A (≥70% compound remaining at timepoint) | A (≥70% compound remaining at timepoint) | A (≥70% compound remaining at timepoint) | – | A (≥70% compound remaining at timepoint)
3 | C=CC(=O)N1CCN(c2cc(C(=O)Nc3cc(O)cc4ccccc34)nc(NCCN3CCN(C)CC3)n2)C[C@@H]1CC#N [Example 27, 6-[(3S)-3-(cyanomethyl)-4-prop-2-enoyl-piperazin-1-yl]-N-(3-hydroxy-1-naphthyl)-2-[2-(4-methylpiperazin-1-yl)ethylamino]pyrimidine-4-carboxamide] | B (30%-70% compound remaining at timepoint) | C (≤30% compound remaining at timepoint) | – | A (≥70% compound remaining at timepoint) | A (≥70% compound remaining at timepoint) | A (≥70% compound remaining at timepoint) | – | A (≥70% compound remaining at timepoint)
4 | C=CC(=O)N1CCN(c2cc(C(=O)Nc3cc(O)cc4ccccc34)nc(OC[C@@H]3CCCN3C)n2)CC1 [Example 03, N-(3-hydroxy-1-naphthyl)-2-[[(2S)-1-methylpyrrolidin-2-yl]methoxy]-6-(4-prop-2-enoylpiperazin-1-yl)pyrimidine-4-carboxamide] | C (≤30% compound remaining at timepoint) | C (≤30% compound remaining at timepoint) | C (≤30% compound remaining at timepoint) | – | A (≥70% compound remaining at timepoint) | – | A (≥70% compound remaining at timepoint) | B (30%-70% compound remaining at timepoint)
5 | C=CC(=O)N1CCN(c2cc(C(=O)Nc3cc(O)cc4ccccc34)nc(NCCN(C)C)n2)C[C@@H]1CC#N [Example 29, 6-[(3S)-3-(cyanomethyl)-4-prop-2-enoyl-piperazin-1-yl]-2-[2-(dimethylamino)ethylamino]-N-(3-hydroxy-1-naphthyl)pyrimidine-4-carboxamide] | B (30%-70% compound remaining at timepoint) | C (≤30% compound remaining at timepoint) | – | A (≥70% compound remaining at timepoint) | A (≥70% compound remaining at timepoint) | A (≥70% compound remaining at timepoint) | – | A (≥70% compound remaining at timepoint)
6 | C=CC(=O)N1CCN(c2cc(C(=O)Nc3cc(O)cc4ccccc34)nc(OCCC3CCCN3C)n2)C[C@@H]1CC#N (stereo partly drawn) [Example 47, 6-[(3S)-3-(cyanomethyl)-4-prop-2-enoyl-piperazin-1-yl]-N-(3-hydroxy-1-naphthyl)-2-[2-(1-methylpyrrolidin-2-yl)ethoxy]pyrimidine-4-carboxamide] | C (≤30% compound remaining at timepoint) | C (≤30% compound remaining at timepoint) | – | A (≥70% compound remaining at timepoint) | A (≥70% compound remaining at timepoint) | A (≥70% compound remaining at timepoint) | – | C (≤30% compound remaining at timepoint)
7 | C=CC(=O)N1CCN(c2cc(C(=O)Nc3cc(O)cc4ccccc34)nc(OCC3CN(C)CCO3)n2)C[C@@H]1CC#N (stereo in doubt) [Example 52, 6-[(3S)-3-(cyanomethyl)-4-prop-2-enoyl-piperazin-1-yl]-N-(3-hydroxy-1-naphthyl)-2-[[(2R)-4-methylmorpholin-2-yl]methoxy]pyrimidine-4-carboxamide] | C (≤30% compound remaining at timepoint) | C (≤30% compound remaining at timepoint) | – | A (≥70% compound remaining at timepoint) | A (≥70% compound remaining at timepoint) | A (≥70% compound remaining at timepoint) | – | C (≤30% compound remaining at timepoint)
8 | C=CC(=O)N1CCN(c2cc(C(=O)Nc3cc(O)cc4ccccc34)nc(NCc3cnn(C)c3)n2)C[C@@H]1CC#N [Example 36, 6-[(3S)-3-(cyanomethyl)-4-prop-2-enoyl-piperazin-1-yl]-N-(3-hydroxy-1-naphthyl)-2-[(1-methylpyrazol-4-yl)methylamino]pyrimidine-4-carboxamide] | A (≥70% compound remaining at timepoint) | B (30%-70% compound remaining at timepoint) | – | A (≥70% compound remaining at timepoint) | A (≥70% compound remaining at timepoint) | A (≥70% compound remaining at timepoint) | – | A (≥70% compound remaining at timepoint)
9 | C=CC(=O)N1CCN(c2cc(C(=O)Nc3cc(O)cc4ccccc34)nc(Cc3ccccc3)n2)C[C@@H]1CC#N [Example 40, 2-benzyl-6-[(3S)-3-(cyanomethyl)-4-prop-2-enoyl-piperazin-1-yl]-N-(3-hydroxy-1-naphthyl)pyrimidine-4-carboxamide] | A (≥70% compound remaining at timepoint) | A (≥70% compound remaining at timepoint) | – | A (≥70% compound remaining at timepoint) | A (≥70% compound remaining at timepoint) | A (≥70% compound remaining at timepoint) | – | A (≥70% compound remaining at timepoint)
